Read-outs that look alike come from different tables or passages of the source.
What was measured:
[1] = tested on: NK cells; conditions: Ogbomo et al., FEBS Letters 2007; cited from earlier work
[2] = tested on: NK cells; conditions: cited from earlier work
[3] = tested on: natural killer cells; assay: Cell proliferation by Ki67 staining, flow cytometry; assay type: cell-based, Human; conditions: NK cells expanded 10 days, treated, further cultured 8 days (FIG. 3)
Method: (§1) In the same manner as in Example 1, natural killer cells expanded ex vivo for 10 days were treated with an HDAC inhibitor and further cultured for 8 days. After harvesting the cells, 5×10^5 cells were obtained and apoptosis and proliferation thereof were measured using a flow cytometer.
(§2) To measure apoptosis, cells were harvested and stained with annexin V (2.5 μl) and 7AAD (2 μl) for 15 minutes, and then the proportion of the cells stained with annexin V/7AAD was analyzed using FACS Cantoll (BD). To measure cell proliferation, PerCP-labeled CD3 mAb (Biolgend Cat No. 344814 clone SK7) and APC-labeled CD56 mAb (Biolegend Cat No. 362504 clone 5.1H11) were added to the cells and allowed to react at 4° C. for 20 minutes. For intracellular FACS, the cells were washed with FACS buffer, and analyzed by staining Ki67 in the cell nucleus with the eBioscience Foxp3/transcription factor staining buffer set (eBioscience Cat No. 00-5523-00).

[4] = tested on: natural killer cells; assay: Apoptosis by annexin V/7AAD staining, flow cytometry; assay type: cell-based, Human; conditions: NK cells expanded 10 days, treated, further cultured 8 days (FIG. 3)
Method: as §1, §2

[5] = tested on: K562 and A375 target cancer cells; assay: Cancer cell killing ability of natural killer cells, chromium release; assay type: cell-based, Human; conditions: K562 and A375 targets, ratio 1:1, 4 hours, versus untreated control (FIG. 4A)
Method: In order to examine whether the cancer cell killing ability of the natural killer cells expanded ex vivo by the method of Example 1 changes, K562 (Korea Cell Line Bank) and A375 (Korea Cell Line Bank) cells were prepared as target cancer cells, labeled with chromium for 1 hour, mixed with natural killer cells at a ratio of 1:1, and then co-cultured 37° C. After 4 hours, the supernatant was taken and the isotope value thereof was analyzed using a gamma counter.

[6] = tested on: natural killer cells; assay: Cell counting during ex vivo expansion culture of natural killer cells (hematocytometer); assay type: cell-based, Human
Method: Human blood was collected, and then centrifuged using Ficoll (Ficoll-Paque™ PLUS, GE Healthcare) at 2500 rpm for 30 minutes, and peripheral blood mononuclear cells were isolated from the buffy coat. Thereafter, the isolated cells were co-cultured with the Jurkat cell line (Korea Cell Line Bank) and EBV-LCL cell line (Korea Cell Line Bank) (each cell line was irradiated with 100 Gy) at a peripheral blood mononuclear cell:Jurkat cell:EBV-LCL cell ratio of 1:0.5:0.5 in hRPMI medium (RPMI1640 medium (Corning) containing 10% FBS and 1% penicillin/streptomycin) in the presence of 500 U/ml of IL-2. During culture, the medium was replaced with hRPMI medium containing 500 U/ml of IL-2 once every 3 to 4 days.
In order to confirm the effect of an HDAC inhibitor on natural killer cells, the natural killer cells cultured for […] under the above-described conditions were treated with 125 nM of an HDAC inhibitor (SAHA, Sigma Aldrich, USA) once every 4 days, and the number of the cells was counted (FIG. 1A). At this time, the number of the cells was counted using a hematocytometer once every 4 days while the cells were further cultured for about 12 days, and during culture, the medium was replaced with hRPMI medium containing 500 U/ml of IL-2.

[7] = tested on: natural killer cells; assay: CD107a expression and IFN-g secretion of natural killer cells, flow cytometry; assay type: cell-based, Human
Method: 2.5 μl of FITC-labeled anti-CD107a mAb was added to the cells, and Golgi stop (BD Pharmingen) was added, followed by culture at 37° C. for 5 hours. After completion of culture, PerCPp-labeled CD3 mAb (Biolgend Cat No. 344814 clone SK7) and APC-labeled CD56mAb (Biolegend Cat No. 362504 clone 5.1H11) were added to the cells and allowed to react at 4° C. for 20 minutes. For intracellular FACS, the cells were washed with FACS buffer, fixed, permeabilized using a BD Cytoperm/Cytofix kit (BD Pharmingen, San Diego, CA), stained with PE-labeled IFN-g mAb, and then analyzed by flow cytometry. As a positive control, natural killer cells treated with PMA/ionomycin were used.

With `CCCC(CCC)C(=O)O` [valproic acid] as the compound, how does the “proliferation of the NK cells” value [1] read?
Its value is “decreases”.

What about the “cancer cell killing ability of the NK cells” value ([2]; Ogbomo et al., FEBS Letters 2007) of the same compound?
Its value is “decreases”.

Which “cancer cell killing ability of the NK cells” value ([2]; activated NK cells, Wang et al., Biol Blood Marrow Transplant 2012) does the source give for `O=C(CCCCCCC(=O)Nc1ccccc1)NO` [vorinostat] here?
Its value is “no change”.

With `O=C(CCCCCCC(=O)Nc1ccccc1)NO` [SAHA] as the compound, how does the “proliferation of the natural killer cells (Ki67)” value [3] read?
The value was “did not change”.

And the “proliferation of the natural killer cells (Ki67)” value ([3]; listed as HDAC inhibitor)?
The value was “no significant change”.

And the “apoptosis of the natural killer cells (annexin V/7AAD)” value [4]?
The value was “inhibited”.

What about the “cancer cell killing ability of the natural killer cells” value [5] of the same compound?
Its value is “did not change”.

What about the “number of cells compared with control group not treated with the HDAC inhibitor” value ([6]; NK cells cultured 6 days, then 125 nM once every 4 days, further culture about 12 days (FIG. 1B)) of the same compound?
The value was “more than double”.

And the “number of the natural killer cells compared to conventional culture method” value ([6]; PBMC co-cultured with Jurkat and EBV-LCL cells for 10 days, then treated)?
The value was “increased”.

What about the “proliferation of the NK cells by concentration” value ([6]; concentration of 62.5 nM (FIG. 2B)) of the same compound?
The value was “the highest”.

What about the number of cells ([6]; treated at an initial stage without being cultured) of the same compound?
The number of cells was “no increase”.

And the “number of cells by timing of treatment” value ([6]; treated from co-culture day 6 (FIG. 2A))?
The value was “the highest”.

What about the “proliferation of the NK cells (growth curve)” value ([6]; treated on day 0 of culture compared to treated on day 10 of culture (FIG. 1C)) of the same compound?
The value was “decreased”.

And the “interferon-gamma secretion of the cells” value ([7]; co-cultured 10 days, then treated)?
The value was “did not change”.

What about the “function of the natural killer cells: expression of CD107a and secretion of IFN-g” value ([7]; treated or not treated with the HDAC inhibitor (FIG. 4B)) of the same compound?
Its value is “no change”.

From US12435310B2, “Expansion culture method for human-derived natural killer cells by using HDAC inhibitor” (KOREA UNIVERSITY RESEARCH AND BUSINESS FOUNDATION, priority 2018, dated 2025)
